The target of one test is T1, MET (Homo sapiens, UniProt P08581).
T1 construct: purchased Carna Biosciences 08-151
Put plainly: MET Mobility Shift Assay. As to conditions: biochemical assay IC50; 100 μM ATP, 60 minute kinase reaction. Here is the method: (§1) Small molecule inhibition of MET kinase activity was evaluated using a fluorescence-based microfluidic mobility shift assay. MET catalyzes the production of ADP from ATP during phosphoryl transfer to the substrate peptide, FLPeptide30 (5-FAM-KKKKEEIYFFF-CONH2) (Perkin Elmer, 760430). MET enzme (Carna Biosciences, 08-151) at 0.625 nM was prepared with 10 mM MgCl2 and 1.5 μM substrate peptide in a buffer containing 50 mM HEPES, 1 mM EGTA, 0.01% Brij-35, 0.05% BSA, and 2 mM DTT and pre-incubated at room temperature for 30 min prior to the start of the reaction. 100 μM ATP was added to start the reaction. The mobility shift assay electrophoretically separates the fluorescently labeled peptides (substrate and phosphorylated product) following the 60 minute kinase reaction. The reaction was terminated by addition of 0.5 M EDTA. Both substrate and product were measured and the ratio of these values used to generate % conversion of substrate to product by the LabChip EZ reader (Perkin Elmer). ICso values were calculated using the inhibition of conversion ratio using Dotmatics Knowledge Solutions Studies curve fitting environment (Dotmatics, Bishops Stortford, UK, CM23) and are presented in Table 2.

For a further test, the target named is T2, Ba/F3-TPR-MET cells (Homo sapiens, UniProt P08581).
T2 construct: fused on or other part: P12270 (Nucleoprotein TPR)
Put plainly: CellTiter-Glo Cell Viability Assay, Ba/F3-TPR-MET. The following applies: 72 hours. Type of test: cell-based. Here is the method:
(§2) Ba/F3-TPR-MET and Ba/F3-TPR-MET-D1228N cells were seeded at 3000 cells per well in a 96 well plate in 90 μL growth media and allowed to incubate overnight at 37° C. with 5% CO2. The following day, compounds were serially diluted from a 10 mM top dose for a 9-point 3-fold dilution curve in DMSO. Following a 100-fold dilution in growth media, a further 10-fold dilution was made into the cell plate for a final volume of 100 μL and 0.1% DMSO. Compounds and cells were incubated together for 72 hours at 37° C. with 5% CO2. The CellTiter-Glo® 2.0 Assay determines the number of viable cells in culture by quantifying ATP, which indicates the presence of metabolically active cells. Luminescence readout is directly proportional to the number of viable cells in culture. CellTiter-Glo reagent (Promega, G9243) and cell plates were allowed to equilibrate to room temperature for at least 15 min, then 100 μL of CellTiter-Glo was added to each well for a 1:1 ratio of reagent to media. Samples were placed on a shaker for 2 min prior to a 30 min incubation at room temperature protected from light. Luminescence was read on a Perkin Elmer Envision plate reader 2105 and used to calculate ICso values within the Dotmatics Knowledge Solutions Studies curve fitting environment (Dotmatics, Bishops Stortford, UK, CM23) and are presented in Table 2.

In test [1] the target is T3, Ba/F3-TPR-MET-D1228N cells (Homo sapiens, UniProt P08581, D1228N, cells depend on it).
T3 construct: fused on or other part: P12270 (Nucleoprotein TPR)
T3 sequence (P08581 whole entry D1228N, the tested form may be a part): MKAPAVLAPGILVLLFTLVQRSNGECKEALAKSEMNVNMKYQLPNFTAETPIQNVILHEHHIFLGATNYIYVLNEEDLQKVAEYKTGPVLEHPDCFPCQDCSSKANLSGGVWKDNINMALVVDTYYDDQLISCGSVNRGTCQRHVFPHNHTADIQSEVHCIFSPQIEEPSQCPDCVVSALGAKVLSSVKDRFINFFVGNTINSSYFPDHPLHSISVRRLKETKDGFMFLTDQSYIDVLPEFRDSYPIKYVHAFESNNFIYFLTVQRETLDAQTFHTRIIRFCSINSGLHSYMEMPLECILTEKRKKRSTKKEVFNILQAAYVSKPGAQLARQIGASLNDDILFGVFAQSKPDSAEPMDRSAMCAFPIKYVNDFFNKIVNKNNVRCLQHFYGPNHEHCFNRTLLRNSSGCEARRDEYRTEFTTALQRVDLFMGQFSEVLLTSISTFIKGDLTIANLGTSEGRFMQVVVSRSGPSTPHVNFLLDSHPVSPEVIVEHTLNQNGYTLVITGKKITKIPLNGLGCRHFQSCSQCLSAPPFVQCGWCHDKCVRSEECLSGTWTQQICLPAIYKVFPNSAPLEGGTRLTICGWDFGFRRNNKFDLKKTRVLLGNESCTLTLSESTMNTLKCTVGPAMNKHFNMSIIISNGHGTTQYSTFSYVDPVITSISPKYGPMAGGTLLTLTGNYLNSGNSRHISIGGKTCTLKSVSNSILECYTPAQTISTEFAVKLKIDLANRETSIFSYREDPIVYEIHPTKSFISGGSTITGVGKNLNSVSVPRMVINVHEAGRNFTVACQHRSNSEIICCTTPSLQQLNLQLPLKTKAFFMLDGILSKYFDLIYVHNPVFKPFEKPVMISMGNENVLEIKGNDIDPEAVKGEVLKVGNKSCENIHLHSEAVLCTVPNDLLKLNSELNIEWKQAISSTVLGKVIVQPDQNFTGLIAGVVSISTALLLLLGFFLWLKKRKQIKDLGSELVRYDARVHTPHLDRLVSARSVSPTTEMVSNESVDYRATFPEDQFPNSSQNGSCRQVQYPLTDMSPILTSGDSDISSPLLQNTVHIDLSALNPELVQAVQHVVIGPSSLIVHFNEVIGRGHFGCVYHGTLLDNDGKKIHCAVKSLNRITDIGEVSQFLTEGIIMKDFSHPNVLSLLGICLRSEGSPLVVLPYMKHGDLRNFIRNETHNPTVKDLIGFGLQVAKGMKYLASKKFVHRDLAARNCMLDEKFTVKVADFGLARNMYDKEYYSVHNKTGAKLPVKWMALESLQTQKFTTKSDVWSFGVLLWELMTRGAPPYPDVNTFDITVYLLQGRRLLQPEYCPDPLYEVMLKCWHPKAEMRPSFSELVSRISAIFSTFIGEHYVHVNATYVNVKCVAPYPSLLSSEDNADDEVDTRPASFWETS
Put plainly: CellTiter-Glo Cell Viability Assay, Ba/F3-TPR-MET-D1228N. Type of test: cell-based. The following applies: 72 hours. As for the experimental part:
as §2

For a further test, the target named is T4, MET D1228N (Homo sapiens, UniProt P08581, D1228N).
T4 construct: purchased Signalchem M52-12IG
T4 sequence (P08581 25-1390 D1228N): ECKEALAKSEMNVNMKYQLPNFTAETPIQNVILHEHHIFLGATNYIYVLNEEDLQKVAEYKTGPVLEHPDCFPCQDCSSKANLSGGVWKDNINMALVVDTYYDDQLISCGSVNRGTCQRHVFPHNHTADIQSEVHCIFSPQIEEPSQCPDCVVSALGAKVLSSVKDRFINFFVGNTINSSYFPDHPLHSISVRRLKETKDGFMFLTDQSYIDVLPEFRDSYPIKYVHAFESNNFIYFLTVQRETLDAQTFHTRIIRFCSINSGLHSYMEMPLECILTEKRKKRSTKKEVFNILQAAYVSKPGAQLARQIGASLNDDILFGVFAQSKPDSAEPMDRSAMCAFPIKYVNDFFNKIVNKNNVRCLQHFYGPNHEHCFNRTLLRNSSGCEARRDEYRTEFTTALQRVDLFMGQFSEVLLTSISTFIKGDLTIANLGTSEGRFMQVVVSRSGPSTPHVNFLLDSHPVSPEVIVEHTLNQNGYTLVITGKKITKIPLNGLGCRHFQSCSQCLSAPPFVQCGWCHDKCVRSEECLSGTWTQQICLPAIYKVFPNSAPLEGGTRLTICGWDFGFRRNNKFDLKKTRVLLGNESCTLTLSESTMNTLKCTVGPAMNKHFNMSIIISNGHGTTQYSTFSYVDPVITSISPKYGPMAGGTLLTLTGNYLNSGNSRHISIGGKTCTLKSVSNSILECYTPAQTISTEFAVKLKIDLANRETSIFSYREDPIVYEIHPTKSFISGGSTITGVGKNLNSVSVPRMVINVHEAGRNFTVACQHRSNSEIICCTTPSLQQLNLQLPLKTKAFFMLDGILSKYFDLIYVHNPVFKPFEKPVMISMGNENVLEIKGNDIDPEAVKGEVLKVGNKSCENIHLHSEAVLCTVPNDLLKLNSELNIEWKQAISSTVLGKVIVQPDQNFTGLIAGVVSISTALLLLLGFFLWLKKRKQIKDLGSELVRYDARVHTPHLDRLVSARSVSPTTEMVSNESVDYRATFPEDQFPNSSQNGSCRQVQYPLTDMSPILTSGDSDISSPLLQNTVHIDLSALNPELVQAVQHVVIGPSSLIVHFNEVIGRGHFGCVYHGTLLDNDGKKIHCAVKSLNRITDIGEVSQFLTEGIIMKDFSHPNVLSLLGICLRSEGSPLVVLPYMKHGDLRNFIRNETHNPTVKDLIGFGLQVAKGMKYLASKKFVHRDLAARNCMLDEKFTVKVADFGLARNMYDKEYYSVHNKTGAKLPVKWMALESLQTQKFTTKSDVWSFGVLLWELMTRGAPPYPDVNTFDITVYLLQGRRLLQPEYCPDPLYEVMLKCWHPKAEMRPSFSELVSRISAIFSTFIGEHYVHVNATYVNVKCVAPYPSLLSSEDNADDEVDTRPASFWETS
The test is described as follows: MET D1228N Mobility Shift Assay. The following applies: biochemical assay IC50; 100 μM ATP, 60 minute kinase reaction. As for the experimental part: as §1, with “MET D1228N” for “MET”, “a fluorescence -based” for “a fluorescence-based”, “FLPeptide30 (5-FAM-KKKKEEIYFFF -CONH2)” for “FLPeptide30 (5-FAM-KKKKEEIYFFF-CONH2)”, “MET D1228N enzyme (Signalchem, M52-12IG)” for “MET enzme (Carna Biosciences, 08-151)”, “at 0.313” for “at 0.625”

T1 sequence (P08581 25-1390): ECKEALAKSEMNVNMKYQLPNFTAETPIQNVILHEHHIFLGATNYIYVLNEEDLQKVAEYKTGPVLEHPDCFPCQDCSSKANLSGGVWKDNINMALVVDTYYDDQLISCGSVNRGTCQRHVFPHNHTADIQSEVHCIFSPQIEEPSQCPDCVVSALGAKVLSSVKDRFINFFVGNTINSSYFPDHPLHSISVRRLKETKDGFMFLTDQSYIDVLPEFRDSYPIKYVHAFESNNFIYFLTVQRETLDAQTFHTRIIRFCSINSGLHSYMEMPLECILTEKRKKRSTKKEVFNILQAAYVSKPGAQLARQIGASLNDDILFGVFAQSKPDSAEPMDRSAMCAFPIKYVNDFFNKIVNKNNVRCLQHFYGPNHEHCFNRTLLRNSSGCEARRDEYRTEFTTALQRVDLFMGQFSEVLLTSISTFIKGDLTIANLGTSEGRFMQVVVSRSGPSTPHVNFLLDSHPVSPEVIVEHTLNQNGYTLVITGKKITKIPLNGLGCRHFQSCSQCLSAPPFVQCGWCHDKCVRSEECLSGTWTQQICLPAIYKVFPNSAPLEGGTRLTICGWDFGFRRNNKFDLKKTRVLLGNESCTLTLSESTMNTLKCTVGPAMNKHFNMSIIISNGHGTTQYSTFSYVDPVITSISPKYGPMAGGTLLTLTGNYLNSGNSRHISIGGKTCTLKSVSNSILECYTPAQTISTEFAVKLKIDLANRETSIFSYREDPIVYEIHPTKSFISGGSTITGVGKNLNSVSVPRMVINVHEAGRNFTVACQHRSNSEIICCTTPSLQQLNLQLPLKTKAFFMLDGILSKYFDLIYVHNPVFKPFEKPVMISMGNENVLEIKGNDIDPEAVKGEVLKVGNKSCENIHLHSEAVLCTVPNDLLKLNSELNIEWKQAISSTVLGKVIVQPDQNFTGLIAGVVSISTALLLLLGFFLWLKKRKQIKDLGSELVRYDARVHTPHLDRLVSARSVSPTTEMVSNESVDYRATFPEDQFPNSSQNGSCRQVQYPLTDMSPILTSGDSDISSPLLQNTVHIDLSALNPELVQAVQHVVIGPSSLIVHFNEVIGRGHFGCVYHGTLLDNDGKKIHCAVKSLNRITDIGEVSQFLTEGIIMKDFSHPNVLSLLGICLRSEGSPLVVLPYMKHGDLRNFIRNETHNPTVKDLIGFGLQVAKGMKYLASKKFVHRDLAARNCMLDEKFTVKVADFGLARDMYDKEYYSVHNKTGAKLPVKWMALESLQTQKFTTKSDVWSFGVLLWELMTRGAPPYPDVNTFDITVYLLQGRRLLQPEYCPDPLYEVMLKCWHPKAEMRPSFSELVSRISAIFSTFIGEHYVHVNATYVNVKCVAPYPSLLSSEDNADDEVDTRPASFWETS

Take `O=C(Nc1cc(F)c(Oc2ccnc3cc(OCCO)ccc23)c(F)c1)c1cnccc1OC1CC1` [Example 100, 4-cyclopropoxy-N-(3,5-difluoro-4-{[7-(2-hydroxyethoxy)quinolin-4-yl]oxy}phenyl)pyridine-3-carboxamide]: the IC50 at MET and on MET D1228N was not above 100 nM each time. The EC50 on Ba/F3-TPR-MET cells was 100 to 1000 nM; in test [1] it was not above 100 nM.
With `CNCCOc1cc2nccc(Oc3c(F)cc(NC(=O)c4cnc(Cl)cc4OC)cc3F)c2cc1OC` [Example 3, 6-chloro-N-(3,5-difluoro-4-((6-methoxy-7-(2-(methylamino)ethoxy)quinolin-4-yl)oxy)phenyl)-4-methoxypyridine-3-carboxamide], the IC50 at MET and at MET D1228N was not above 100 nM in each case. Also, the EC50 is not above 100 nM on Ba/F3-TPR-MET cells and 100 to 1000 nM in test [1].
On to `CNCCOc1ccc2c(Oc3c(F)cc(NC(=O)c4cnc(F)cc4OC4CC4)cc3F)ccnc2c1` [Example 109, 4-cyclopropoxy-N-(3,5-difluoro-4-((7-(2-(methylamino)ethoxy)quinolin-4-yl)oxy)phenyl)-6-fluoropyridine-3-carboxamide], for which the IC50 on MET and on MET D1228N was not above 100 nM in each case. In addition, the EC50 (at Ba/F3-TPR-MET cells; in test [1]) was not above 100 nM each time.
As to `CCOc1ccncc1C(=O)Nc1cc(F)c(Oc2ccnc3cc(OCCNC)c(OC)cc23)c(F)c1` [Example 5, N-(3,5-difluoro-4-((6-methoxy-7-(2-(methylamino)ethoxy)quinolin-4-yl)oxy)phenyl)-4-ethoxypyridine-3-carboxamide], the 50% inhibitory concentration (IC50) on MET and at MET D1228N was not above 100 nM throughout. Moreover, the EC50 (on Ba/F3-TPR-MET cells; in test [1]) was not above 100 nM throughout.
As for `CNCCOc1ccc2c(Oc3c(F)cc(NC(=O)c4cnc(Cl)cc4OC4CC4)cc3F)ccnc2c1` [Example 113, 6-chloro-4-cyclopropoxy-N-[3,5-difluoro-4-({7-[2-(methylamino)ethoxy]quinolin-4-yl}oxy)phenyl]pyridine-3-carboxamide], the IC50 on MET and on MET D1228N was not above 100 nM throughout. Besides, the half-maximal effective concentration (EC50) (on Ba/F3-TPR-MET cells; in test [1]) was not above 100 nM throughout.
As for `COc1cc2c(Oc3cc(F)c(NC(=O)c4cnc(N)cc4OC)cc3F)ccnc2cc1OCCCN1CCOCC1` [Example 31, 6-amino-N-(2,5-difluoro-4-((6-methoxy-7-(3-morpholinopropoxy)quinolin-4-yl)oxy)phenyl)-4-methoxypyridine-3-carboxamide], the IC50 on MET and at MET D1228N was not above 100 nM throughout. The EC50 (at Ba/F3-TPR-MET cells; in test [1]) was 100 to 1000 nM in each case.
As for `COc1cc2c(Oc3c(F)cc(NC(=O)c4nnccc4OC4CC4)cc3F)ccnc2cc1OCCO` [Example 148, 4-cyclopropoxy-N-(3,5-difluoro-4-((7-(2-hydroxyethoxy)-6-methoxyquinolin-4-yl)oxy)phenyl)pyridazine-3-carboxamide], the IC50 at MET and at MET D1228N was not above 100 nM throughout. Further, the EC50 (at Ba/F3-TPR-MET cells; in test [1]) was not above 100 nM each time.
With `COc1cc2nccc(Oc3c(F)cc(NC(=O)c4cnccc4OC)cc3F)c2cc1O[C@H](C)CO` [Example 131, (R)-N-(3,5-difluoro-4-{[6-((1-hydroxypropan-2-yl)oxy)-7-methoxyquinolin-4-yl]oxy}phenyl)-4-methoxypyridine-3-carboxamide], the IC50 at MET and at MET D1228N was not above 100 nM throughout. Besides, the EC50 (at Ba/F3-TPR-MET cells; in test [1]) was not above 100 nM throughout.
As for `COc1cc2c(Oc3c(F)cc(NC(=O)c4cnccc4OC4CC4)cc3F)ccnc2cc1OCCCN1CCOCC1` [Example 53, 4-cyclopropoxy-N-[3,5-difluoro-4-({6-methoxy-7-[3-(morpholin-4-yl)propoxy]quinolin-4-yl}oxy)phenyl]pyridine-3-carboxamide], the IC50 at MET and at MET D1228N was not above 100 nM throughout. Moreover, the EC50 (on Ba/F3-TPR-MET cells; in test [1]) was not above 100 nM each time.

The values above are taken from US11753395B2 (Kinnate Biopharma Inc., priority 2021, dated 2023).
